Source: patent US4520022A, “Substituted vinyl cephalosporins” (priority 1983, dated 1985)
Values after ≈ are worked out from the molar mass of the structure shown. Values joined by “and” are separate entries in the source; they are usually repeats but may differ in a detail not shown here. Equal entries are not always repeated. Where two headings read alike, the source gives them in different places.

Key:
B. fragilis = assay: In vitro activity against anaerobes (MIC), B. fragilis; format: cell-based; settings: Bacteroides fragilis
E. coli Juhl = assay: Protective dose, mice infected with lethal inoculum, oral treatment, E. coli Juhl; format: in vivo; settings: for ED50: Escherichia coli, po, 120 h
Gp, rods; Gp, cocci = assay: microbe, parasite or virus in culture; format: cell-based, C. difficile; C. perfringens; P. acnes; P. anaerobius; settings: read-out: MIC, Geometric Mean
S. pyogenes = assay: In vitro activity against Streptococci (MIC), S. pyogenes; format: cell-based
S. pyogenes A20201 = assay: Protective dose PD50, mice infected with lethal inoculum, oral treatment, S. pyogenes A20201; format: in vivo; settings: Streptococcus pyogenes, 120 h
[1] = test system: Gp Ib: S. aureus 193, BX-1633-2 A9606, A15092, Russell, A9602; settings: Staphylococcus aureus
S. pneumoniae = assay: In vitro activity against Streptococci (MIC), S. pneumoniae; format: cell-based; settings: Streptococcus pneumoniae
S. aureus Smith = assay: Protective dose, mice infected with lethal inoculum, oral treatment, S. aureus Smith; format: in vivo; settings: for ED50: Staphylococcus aureus, po, 120 h
S. aureus BX-1633 = assay: Protective dose PD50, mice infected with lethal inoculum, oral treatment, S. aureus BX-1633; format: in vivo; settings: Staphylococcus aureus, BX1633, 120 h
H. influenza A9729 = assay: Protective dose PD50, mice infected with lethal inoculum, oral treatment, H. influenza A9729; format: in vivo; settings: Mus musculus, 120 h
Description: The structure activity correlations drawn from the foregoing in vitro studies are born out by the results of in vivo studies in mice. Table 4 is a tabulation of the protective doses for mice infected with a lethal inoculum of a bacteria. Two different bacteria were employed in the studies, one a Gram+ organism and the other a Gram- organism. The protective dose (PD50) is that dose which when administered to a group of infected mice results in 50% survival after five days. Normally untreated infected mice die within three days following injection of the lethal inoculum.
Protective Dose PD50 for Mice Infected with Lethal Inoculum

P. mirabilis A9554 = assay: Protective dose PD50, mice infected with lethal inoculum, oral treatment, P. mirabilis A9554; format: in vivo
C. difficile A21675 = assay: In vitro activity against anaerobes (MIC), C. difficile; format: cell-based; settings: Clostridioides difficile; Gp rods; C. difficile A21675; clindamycin resistant; read-out: MIC
H. influenzae = assay: In vitro activity against Haemophilis (MIC), H. influenzae; format: cell-based; settings: Haemophilus influenzae, Compound 9 lot 2, read-out: MIC
[2] = test system: Gp Ia: S. aureus Smith A9537, A9497, Terajima, A9534, A9601; settings: Staphylococcus aureus
C. perfringens A9645 = assay: microbe, parasite or virus in culture; format: cell-based; settings: Clostridium perfringens
bacteria = assay: Antibacterial activity, general statements; settings: in words
[3] = Metabolism in the rat (urine after oral administration); format: in vivo, Wister rats; settings: oral 100 mg/kg; urine 24 hours
Procedure: Refer to Procedure 43. Compound No. 37 is the 3,4-dihydroxyphenyl compound and Compound No. 42 is the 3-methoxy-4-hydroxyphenyl compound.
Six male Wister rats (400-600 g) were placed in steel metabolic cages after the oral administration of Compound 37 at the dose of 100 mg/kg and urine was collected over a period of 24 hours. The rats were fed their regular diet and given water during the experiment.
The urine (ca. 90 ml) was adjusted to pH 3 with N hydrochloric acid and filtered to remove a precipitate. The filtrate was chromatographed on a column packed with 300 ml of HP-20 by eluting with 2 L of water and 2 L of 30% methanol under monitoring the HPLC. The fractions containing the bioactive components of the 30% methanol eluate were collected, concentrated to 10 ml and lyophilized to give 390 mg of brown solid. A solution of the solid in 20 ml of water was chromatographed on a column packed with 200 ml of the packing of a prepPAK-C18 cartridge (Waters) by eluting with water, 5% methanol, and 10% methanol, successively. The first half of the 5% methanol eluate was concentrated to 5 ml and lyophilized to give 44 mg of Compound 37 (70% pure) containing impurities derived from urine. The second half of the 5% methanol eluate was concentrated to 5 ml and lyophilized to give 36 mg of product, which was a mixture of Compound 37, Compound 42, and impurities derived from urine. […]

[4] = mouse, in vivo, po
in vivo = settings: mouse; for half-life: T1/2
[5] = oral, value in parentheses: cephalexin in the same run as the compound of that line, 7200 min
[6] = read-out: Minimum Inhibitory Concentration Gp Ib, Mueller-Hinton agar, run 2, average of five organisms
[7] = read-out: Minimum Inhibitory Concentration Gp Ia, Mueller-Hinton agar, run 2, average of five organisms

CC1=C(C(=O)O)N2C(=O)[C@@H](NC(=O)[C@H](N)c3ccccc3)[C@H]2SC1 [Cephalexin]
MIC (B. fragilis; B. fragilis A20928-1, A21900, A20935, β-lactamase (-), read-out: MIC, Geometric Mean): 9.9 µg/mL (≈ 28.5 µM) | MIC (B. fragilis; B. fragilis A20928-1, β-lactamase (-)): 12.5 µg/mL (≈ 36 µM) | MIC (B. fragilis; B. fragilis A22021, β-lactamase (+), read-out: MIC): 100 µg/mL (≈ 288 µM) | MIC (B. fragilis; B. fragilis A22053, A22021, A22693, β-lactamase (+), read-out: MIC, Geometric Mean): > 75 µg/mL | MIC (B. fragilis; B. fragilis A22053, β-lactamase (+), read-out: MIC): 25 µg/mL (≈ 72 µM) | MIC (B. fragilis; B. fragilis A22533, β-lactamase (+), read-out: MIC): > 100 µg/mL | MIC (B. fragilis; B. fragilis A22693, β-lactamase (+), read-out: MIC): > 100 µg/mL | MIC (B. fragilis; B. fragilis A22695, A22533, β-lactamase (+), read-out: MIC, Geometric Mean): > 100 µg/mL | MIC (B. fragilis; B. fragilis A22695, β-lactamase (+), read-out: MIC): 100 µg/mL (≈ 288 µM) | ED50 (E. coli Juhl; read-out: Protective dose (PD50) of cephalexin in the same run, E. coli Juhl, oral, value in parentheses: cephalexin in the same run as the compound of that line): 8.4 mg/kg | Protective dose (PD50) of cephalexin in the same run, E. coli Juhl (E. coli Juhl; [5]): 8.2 mg/kg | MIC (Gp, rods; Gp, cocci): 11 µg/mL (≈ 31.7 µM) | MIC (S. pyogenes; S. pyogenes A9604, Compound 9 lot 2): 0.8 µg/mL (≈ 2.3 µM) | MIC (S. pyogenes; S. pyogenes A15040, Compound 9 lot 2): 0.8 µg/mL (≈ 2.3 µM) | MIC (S. pyogenes; S. pyogenes A20065, Compound 9 lot 2): 0.8 µg/mL (≈ 2.3 µM) | MIC (S. pyogenes; S. pyogenes A20201, Compound 9 lot 2): 0.8 µg/mL (≈ 2.3 µM) | MIC (S. pyogenes; S. pyogenes Dick, Compound 9 lot 2): 0.8 µg/mL (≈ 2.3 µM) | MIC (S. pyogenes; Streptococcus pyogenes): 0.8 µg/mL (≈ 2.3 µM) | MIC (S. pyogenes; Streptococcus pyogenes, read-out: MIC, Geometric Mean): 0.8 µg/mL (≈ 2.3 µM) | ED50 (S. pyogenes A20201): 0.74 mg/kg | MIC ([1]; read-out: Minimum Inhibitory Concentration Gp Ib, Mueller-Hinton agar, run 1, average of five organisms): 4.1 µg/mL (≈ 11.8 µM) | MIC [1, 6]: 3.6 µg/mL (≈ 10.4 µM) | MIC (S. pneumoniae): 3.1 µg/mL (≈ 8.92 µM) | MIC (S. pneumoniae; S. pneumoniae A9585, Compound 9 lot 2): 3.1 µg/mL (≈ 8.92 µM) | MIC (S. pneumoniae; S. pneumoniae A15069, Compound 9 lot 2): 3.1 µg/mL (≈ 8.92 µM) | MIC (S. pneumoniae; S. pneumoniae A20759, Compound 9 lot 2): 3.1 µg/mL (≈ 8.92 µM) | MIC (S. pneumoniae; S. pneumoniae Type I, Compound 9 lot 2): 3.1 µg/mL (≈ 8.92 µM) | MIC (S. pneumoniae; S. pneumoniae Type III, Compound 9 lot 2): 3.1 µg/mL (≈ 8.92 µM) | MIC (S. pneumoniae; read-out: MIC, Geometric Mean): 3.1 µg/mL (≈ 8.92 µM) | ED50 (S. aureus Smith; read-out: Protective dose (PD50) of cephalexin in the same run, S. aureus Smith, oral, value in parentheses: cephalexin in the same run as the compound of that line): 0.31 mg/kg | Protective dose (PD50) of cephalexin in the same run, S. aureus Smith (S. aureus Smith; [5]): 0.27 mg/kg and 0.22 mg/kg | ED50 (S. aureus BX-1633): 17 mg/kg | ED50 (H. influenza A9729): 18 mg/kg | Protective Dose PD50 (P. mirabilis A9554): 12.5 | MIC (C. difficile A21675): 100 µg/mL (≈ 288 µM) | MIC (H. influenzae; H. influenzae A22157): 3.1 µg/mL (≈ 8.92 µM) | MIC (H. influenzae; H. influenzae A22481): 3.1 µg/mL (≈ 8.92 µM) | MIC (H. influenzae; H. influenzae A22491): 3.1 µg/mL (≈ 8.92 µM) | MIC ([2]; read-out: Minimum Inhibitory Concentration Gp Ia, Mueller-Hinton agar, run 1, average of five organisms): 1.2 µg/mL (≈ 3.45 µM) | MIC [2, 7]: 0.7 µg/mL (≈ 2.01 µM) | MIC (C. perfringens A9645): 12.5 µg/mL (≈ 36 µM)

C/C=C\C1=C(C(=O)O)N2C(=O)[C@@H](NC(=O)[C@H](N)c3ccc(O)c(O)c3)[C@H]2SC1 [Compound 37, 7β-[D(-)-2-Amino-2-(3,4-dihydroxyphenyl)acetamido]-3-[(Z)-1-propen-1-yl]-3-cephem-4-carboxylic Acid]
ED50 (E. coli Juhl; oral, 50% survival for 5 days, groups of 5 mice, read-out: Protective dose (PD50), E. coli Juhl): 0.44 mg/kg | activity against the Gram- infection (E. coli Juhl; in words): more active against the Gram- infection | MIC [1, 6]: 7.2 µg/mL (≈ 17.8 µM) | MIC ([1]; read-out: Minimum inhibitory Concentration Gp Ib, Test Medium Comparison, A: Mueller-Hinton agar, average values): 6.3 µg/mL (≈ 15.5 µM) | MIC ([1]; read-out: Minimum inhibitory Concentration Gp Ib, Test Medium Comparison, B: Nutrient agar, average values): 0.61 µg/mL (≈ 1.5 µM) | ED50 (S. aureus Smith; oral, 50% survival for 5 days, groups of 5 mice, read-out: Protective dose (PD50), S. aureus Smith): 0.13 mg/kg | antibacterial activity (bacteria): highly active substance against both the Gram+ and Gram- bacteria | metabolism in the rat [3]: metabolized in the rat to Compound No. 42 | blood levels following oral administration [4]: exceptionally high blood levels | MIC [2, 7]: 6.3 µg/mL (≈ 15.5 µM) | MIC ([2]; read-out: Minimum inhibitory Concentration Gp Ia, Test Medium Comparison, A: Mueller-Hinton agar, average values): 4.8 µg/mL (≈ 11.8 µM) | MIC ([2]; read-out: Minimum inhibitory Concentration Gp Ia, Test Medium Comparison, B: Nutrient agar, average values): 0.4 µg/mL (≈ 0.987 µM) | AUC (in vivo; im, 20 mg/kg, AUC*): 233 µg·h/mL | Cmax (in vivo; im, 20 mg/kg): 86 µg/mL | half-life (in vivo; im, 20 mg/kg): 72 min | AUC (in vivo; po, 20 mg/kg, AUC*): 270 µg·h/mL | Cmax (in vivo; po, 20 mg/kg): 58 µg/mL | half-life (in vivo; po, 20 mg/kg): 306 min | AUC (in vivo; po, 100 mg/kg, AUC): 666 µg·h/mL | Cmax (in vivo; po, 100 mg/kg): 180 µg/mL | half-life (in vivo; po, 100 mg/kg): 150 min
